Earlier results, collected in US20060019313A1, “Method for detecting molecular surface interactions” (Biacore AB, priority 2004, published 2006).

System: Anti-myoglobin IgG
Details: stated as known; IgG used as reference

In the case of `CCC(Cc1c(I)cc(I)c(O)c1I)C(=O)O` (stereo not drawn) [iophenoxic acid, α-ethyl-3-hydroxy-2,4,6-triiodohydro-cinnamic acid], the “binding to IgG” value is given as “not to IgG”.
